Assay results as given in ChEMBL document CHEMBL1143657, “Saucerneol B derivatives as human acyl-CoA: cholesterol acyltransferase inhibitors” (Bioorg Med Chem Lett, 2005).

These compounds were tested against T1, Sterol O-acyltransferase 2 (Homo sapiens) (UniProt O75908) (assay: In vitro inhibition of human Acyl coenzyme A:cholesterol acyltransferase 2 expressed in Hi5 cells at 125 uM). Settings: BTI-TN-5B1-4.
T1 sequence (whole entry): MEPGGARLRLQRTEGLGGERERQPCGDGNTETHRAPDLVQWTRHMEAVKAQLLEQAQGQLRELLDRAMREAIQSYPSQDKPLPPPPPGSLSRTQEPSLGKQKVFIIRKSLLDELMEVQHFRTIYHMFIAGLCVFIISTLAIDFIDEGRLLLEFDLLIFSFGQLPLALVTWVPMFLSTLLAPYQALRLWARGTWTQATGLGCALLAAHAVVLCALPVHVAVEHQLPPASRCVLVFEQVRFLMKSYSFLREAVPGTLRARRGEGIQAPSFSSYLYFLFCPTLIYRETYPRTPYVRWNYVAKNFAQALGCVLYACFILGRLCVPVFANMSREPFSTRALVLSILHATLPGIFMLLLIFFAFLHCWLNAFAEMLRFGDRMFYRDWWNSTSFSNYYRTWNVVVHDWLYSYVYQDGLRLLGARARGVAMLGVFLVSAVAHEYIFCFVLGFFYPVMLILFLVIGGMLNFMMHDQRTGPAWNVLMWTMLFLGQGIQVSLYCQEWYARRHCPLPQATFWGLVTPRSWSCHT

Row | SMILES | inhibition [%]
1 | CCCCCCCCOC(c1ccc2c(c1)OCO2)C(OC)Oc1ccc([C@H]2O[C@@H](c3ccc(OC)c(OC)c3)[C@@H](C)[C@H]2C)cc1OC (some centres not stated) | 19
2 | CCCCOC(c1ccc2c(c1)OCO2)C(OC)Oc1ccc([C@H]2O[C@@H](c3ccc(OC)c(OC)c3)[C@@H](C)[C@H]2C)cc1OC (some centres not stated) | 28
3 | CCCCCCCOC(c1ccc2c(c1)OCO2)C(OC)Oc1ccc([C@H]2O[C@@H](c3ccc(OC)c(OC)c3)[C@@H](C)[C@H]2C)cc1OC (some centres not stated) | 26
4 | CCOC(c1ccc2c(c1)OCO2)C(OC)Oc1ccc([C@H]2O[C@@H](c3ccc(OC)c(OC)c3)[C@@H](C)[C@H]2C)cc1OC (some centres not stated) | 29
5 | COc1ccc([C@@H]2O[C@H](c3ccc(OC(OC)C(OC)c4ccc5c(c4)OCO5)c(OC)c3)[C@H](C)[C@@H]2C)cc1OC (some centres not stated) | 45

More lines, now with the values ahead:

Row | inhibition [%] | SMILES
6 | 33 | CCCCCOC(c1ccc2c(c1)OCO2)C(OC)Oc1ccc([C@H]2O[C@@H](c3ccc(OC)c(OC)c3)[C@@H](C)[C@H]2C)cc1OC (some centres not stated)
7 | 33 | CCCCCCOC(c1ccc2c(c1)OCO2)C(OC)Oc1ccc([C@H]2O[C@@H](c3ccc(OC)c(OC)c3)[C@@H](C)[C@H]2C)cc1OC (some centres not stated)
8 | 10 | CCCCCCCCCOC(c1ccc2c(c1)OCO2)C(OC)Oc1ccc([C@H]2O[C@@H](c3ccc(OC)c(OC)c3)[C@@H](C)[C@H]2C)cc1OC (some centres not stated)
9 | 33 | CCCOC(c1ccc2c(c1)OCO2)C(OC)Oc1ccc([C@H]2O[C@@H](c3ccc(OC)c(OC)c3)[C@@H](C)[C@H]2C)cc1OC (some centres not stated)

What follows are compounds tested against T2, Sterol O-acyltransferase 1 (Homo sapiens) (UniProt P35610) (assay: In vitro inhibition of human Acyl coenzyme A:cholesterol acyltransferase 1 expressed in Hi5 cells). Settings: BTI-TN-5B1-4, concentration not given here.
T2 sequence (whole entry): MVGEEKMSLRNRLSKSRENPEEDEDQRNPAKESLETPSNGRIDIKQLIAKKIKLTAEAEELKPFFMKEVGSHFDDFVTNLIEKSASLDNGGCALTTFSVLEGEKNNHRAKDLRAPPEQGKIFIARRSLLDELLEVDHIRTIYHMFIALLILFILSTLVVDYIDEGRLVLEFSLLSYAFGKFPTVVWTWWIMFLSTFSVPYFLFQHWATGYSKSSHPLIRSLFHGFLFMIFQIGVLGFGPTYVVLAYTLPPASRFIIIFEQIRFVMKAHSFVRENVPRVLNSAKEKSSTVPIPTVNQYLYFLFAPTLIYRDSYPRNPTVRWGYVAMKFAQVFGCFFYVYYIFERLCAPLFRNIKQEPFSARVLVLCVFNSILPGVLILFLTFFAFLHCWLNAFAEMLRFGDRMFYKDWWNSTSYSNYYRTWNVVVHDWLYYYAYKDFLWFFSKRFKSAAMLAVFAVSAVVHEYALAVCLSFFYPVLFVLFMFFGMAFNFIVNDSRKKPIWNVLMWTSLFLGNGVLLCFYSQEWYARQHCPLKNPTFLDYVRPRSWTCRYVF

Row | inhibition [%] | SMILES
10 | 44 | CCCCCCCCOC(c1ccc2c(c1)OCO2)C(OC)Oc1ccc([C@H]2O[C@@H](c3ccc(OC)c(OC)c3)[C@@H](C)[C@H]2C)cc1OC (some centres not stated)
11 | 25 | CCCCCCCCCOC(c1ccc2c(c1)OCO2)C(OC)Oc1ccc([C@H]2O[C@@H](c3ccc(OC)c(OC)c3)[C@@H](C)[C@H]2C)cc1OC (some centres not stated)

The compounds below were run against T3, Sterol O-acyltransferase 2 (Homo sapiens, UniProt O75908) (assay: In vitro inhibitory concentration against human Acyl coenzyme A:cholesterol acyltransferase 2 expressed in Hi5 cells). Settings: not given.
T3 sequence (O75908 whole entry): T1 sequence (whole entry)
Parameters: species or system BTI-TN-5B1-4

Row | IC50 [µM] | SMILES
12 | 8 | COc1ccc(C(O)C(C)Oc2ccc([C@H]3O[C@H](c4ccc(OC(C)C(O)c5ccc(OC)c(OC)c5)c(OC)c4)[C@H](C)[C@H]3C)cc2OC)cc1OC (some centres not stated)
